Broadly, the EC50 is the concentration at which the effect is half-maximal. High values mean a less potent agent, low ones a more potent agent. One may read the EC25 as the concentration needed for an effect of 25%. The low end stands for greater potency, the high end for weaker potency.

Each structure is given as a SMILES string.

Series [1] deals with HEK293. Briefly: Cytotoxicity against HEK293 cells after 48 hrs by MTS assay. The note with it: for EC50: Homo sapiens, HEK293, 48 h; for EC25: human, hek293, 48 h. Type of series: cell-based, Homo sapiens.
Series [2] is described as follows: Cytotoxicity against human M38L cells after 48 hrs by MTS assay. The class given is cell-based. The note with it: for EC50: Homo sapiens, M38L; for EC25: human, m38l.
Series [3] is described as follows: Potency index, ratio of EC50 for valyl colchicine to EC50 for compound against HEK293 cells after 48 hrs by MTS assay. The note with it: human, read-out: Ratio EC50. The class given is cell-based. Background: Tetrazolium dyes change colour on reduction, which living cells bring about.

In series [1], `COc1cc2c(c(OC)c1OC)-c1ccc(OC)c(=O)cc1[C@@H](NC(=O)[C@@H](N)C(C)C)CC2.Cl` returned an EC50 of 300 nM and an EC25 of 80 nM. Moreover, in series [2], the EC50 came out at 300 nM and the EC25 stood at 200 nM.

In the case of `COc1cc2c(c(OC)c1OC)-c1ccc(OC)c(=O)cc1[C@@H](NC(C)=O)CC2` [COLCHICINE], in series [1], the EC50 amounted to 30 nM and the EC25 turned out to be 20 nM. In series [2], this molecule came in with an EC50 of 30 nM and an EC25 of 20 nM. The selectivity ratio at 48 h in series [3] came to 10.

The record behind these values is ChEMBL document CHEMBL3286238, “Synthesis of a novel legumain-cleavable colchicine prodrug with cell-specific toxicity” (Bioorg Med Chem, 2014).
